Assay results: ChEMBL document CHEMBL1148558, “Optimization of CCR4 antagonists: side-chain exploration” (Bioorg Med Chem Lett, 2006)

Columns and labels:
[1] = target: T1, C-C chemokine receptor type 4 (Homo sapiens, UniProt P51679); experiment: Displacement of [125I]TARC from human CCR4 receptor transfected in HEK293 cells; format: cell-based
T1 sequence (P51679 whole entry): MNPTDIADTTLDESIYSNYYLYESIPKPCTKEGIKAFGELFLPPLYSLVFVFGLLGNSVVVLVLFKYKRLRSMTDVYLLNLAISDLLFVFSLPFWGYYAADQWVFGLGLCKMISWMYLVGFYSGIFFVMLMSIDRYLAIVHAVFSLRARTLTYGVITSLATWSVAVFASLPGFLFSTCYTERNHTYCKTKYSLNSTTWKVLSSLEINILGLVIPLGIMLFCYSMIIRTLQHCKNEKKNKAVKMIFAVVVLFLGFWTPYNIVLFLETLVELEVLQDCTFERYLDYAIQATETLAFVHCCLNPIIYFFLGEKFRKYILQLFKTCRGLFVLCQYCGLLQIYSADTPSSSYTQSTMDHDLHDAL

Mus musculus = experiment: In vivo efficacy against allergic lung inflammation in BABL/c mice administered sc; format: functional
[2] = target: T1, C-C chemokine receptor type 4; experiment: Calcium mobilization mediated by CCR4 receptor in CEMS529 cells by FLIPR; format: functional, cell-based
L1.2 = experiment: Cytotoxicity against CCR4 transfected L1.2 cells (murine pre-B cells); format: functional, cell-based; conditions: Mus musculus

Row | Structure (SMILES) | IC50 [1] | other results
1 | O=C(Cc1cccnc1)N1CCN(c2nccc(OCc3ccc(Cl)cc3Cl)n2)CC1 | > 10000 nM | 
2 | CN1CCCC(C(=O)NCCNc2nccc(OCc3ccc(Cl)cc3Cl)n2)C1 (stereo not drawn) | > 10000 nM | 
3 | CN1CCCC(C(=O)N2CCN(c3nccc(OCc4ccc(Cl)cc4Cl)n3)CC2)C1 (stereo not drawn) | 1200 nM | 
4 | O=C(c1cccnc1)N1CCN(c2nccc(OCc3ccc(Cl)cc3Cl)n2)CC1 | > 10000 nM | 
5 | O=C([C@@H]1CCCCN1)N1CCN(c2nccc(NCc3ccc(Cl)cc3Cl)n2)CC1 | 1000 nM | 
6 | CN1CCCC(C(=O)NCCCNc2nccc(OCc3ccc(Cl)cc3Cl)n2)C1 (stereo not drawn) | > 10000 nM | 
7 | O=C(C1CCCNC1)N1CCN(c2nccc(NCc3ccc(Cl)cc3Cl)n2)CC1 (stereo not drawn) | 800 nM | 
8 | CC(C)[C@@H](CNc1nccc(OCc2ccc(Cl)cc2Cl)n1)NC(=O)C1CCCN(C)C1 (stereo partly drawn) | 5600 nM | 
9 | CN1CCCC(C(=O)N2CCN(c3nccc(NCc4ccc(Cl)cc4Cl)n3)CC2)C1 (stereo not drawn) | 700 nM | 
10 | O=C(C1CCNCC1)N1CCN(c2nccc(NCc3ccc(Cl)cc3Cl)n2)CC1 | > 10000 nM | 
11 | O=C(C1CNC1)N1CCN(c2nccc(NCc3ccc(Cl)cc3Cl)n2)CC1 | > 10000 nM | 
12 | Cn1cnc(CC(=O)N2CCN(c3nccc(OCc4ccc(Cl)cc4Cl)n3)CC2)c1 | > 10000 nM | 
13 | O=C([C@H]1CCCN1)N1CCN(c2nccc(NCc3ccc(Cl)cc3Cl)n2)CC1 | 60 nM | 
14 | O=C([C@H]1CCCCN1)N1CCN(c2nccc(NCc3ccc(Cl)cc3Cl)n2)CC1 | 50 nM | ED50 (Mus musculus): 30 mg/kg; IC50 [2]: 10 nM; IC50 (L1.2): > 100000 nM
15 | CN1CCCC(C(=O)N2CCN(c3ccnc(NCc4ccc(Cl)cc4Cl)n3)CC2)C1 (stereo not drawn) | 300 nM | 
